In ChEMBL document CHEMBL4813981, “Synthesis and in vitro antibacterial activity of new aminothiazole-oximepiperidone cephalosporins” (2021):
≈ marks a conversion by molar mass, not a printed value.

Experiments:
Assay type in all cases: functional
Klebsiella aerogenes [1] = assay: Antibacterial activity against Enterobacter aerogenes 17-5 assessed as reduction in bacterial growth
Enterobacter cloacae [2] = assay: Antibacterial activity against Enterobacter cloacae 17-1 assessed as reduction in bacterial growth
Pseudomonas aeruginosa [3] = assay: Antibacterial activity against Carbapenem- resistant Pseudomonas aeruginosa 17-5 assessed as reduction in bacterial growth
Klebsiella pneumoniae [4] = assay: Antibacterial activity against Carbapenem- sensitive Klebsiella pneumoniae 17-4 overexpressing extended spectrum beta-lactamases assessed as reduction in bacterial growth
Pseudomonas aeruginosa [5] = assay: Antibacterial activity against Pseudomonas aeruginosa ATCC 27853 assessed as reduction in bacterial growth
Enterobacter cloacae [6] = assay: Antibacterial activity against Enterobacter cloacae 17-2 assessed as reduction in bacterial growth
Pseudomonas aeruginosa [7] = assay: Antibacterial activity against Carbapenem- sensitive Pseudomonas aeruginosa 17-26 assessed as reduction in bacterial growth
Klebsiella pneumoniae [8] = assay: Antibacterial activity against Carbapenem- resistant Klebsiella pneumoniae KR 15-5 assessed as reduction in bacterial growth
Escherichia coli [9] = assay: Antibacterial activity against ESBLs positive Carbapenem-sensitive Escherichia coli 17-14 assessed as reduction in bacterial growth
Escherichia coli [10] = assay: Antibacterial activity against ESBLs negative Carbapenem-sensitive Escherichia coli 17-7 assessed as reduction in bacterial growth
Klebsiella pneumoniae [11] = assay: Antibacterial activity against Carbapenem- resistant Klebsiella pneumoniae KR 15-13 assessed as reduction in bacterial growth
Klebsiella pneumoniae [12] = assay: Antibacterial activity against ESBLs negative Carbapenem-sensitive Klebsiella pneumonia 15-2 assessed as reduction in bacterial growth
Pseudomonas aeruginosa [13] = assay: Antibacterial activity against Carbapenem- resistant Pseudomonas aeruginosa 17-1 assessed as reduction in bacterial growth
Klebsiella pneumoniae [14] = assay: Antibacterial activity against Carbapenem- sensitive Klebsiella pneumoniae 17-7 overexpressing extended spectrum beta-lactamases assessed as reduction in bacterial growth
Klebsiella aerogenes [15] = assay: Antibacterial activity against Enterobacter aerogenes 17-1 assessed as reduction in bacterial growth
Escherichia coli [16] = assay: Antibacterial activity against ESBLs positive Carbapenem-sensitive Escherichia coli 17-2 assessed as reduction in bacterial growth
Escherichia coli [17] = assay: Antibacterial activity against Escherichia coli NCTC 13353 assessed as reduction in bacterial growth
Escherichia coli [18] = assay: Antibacterial activity against ESBLs positive Carbapenem-sensitive Escherichia coli 17-8 assessed as reduction in bacterial growth
Klebsiella pneumoniae [19] = assay: Antibacterial activity against Carbapenem- resistant Klebsiella pneumoniae KR 15-8 assessed as reduction in bacterial growth
Escherichia coli [20] = assay: Antibacterial activity against ESBLs positive Carbapenem-sensitive Escherichia coli 17-18 assessed as reduction in bacterial growth
Escherichia coli [21] = assay: Antibacterial activity against ESBLs positive Carbapenem-sensitive Escherichia coli 17-22 assessed as reduction in bacterial growth
Acinetobacter baumannii [22] = assay: Antibacterial activity against Carbapenem- resistant Acinetobacter baumannii 17-11 assessed as reduction in bacterial growth
Enterobacter cloacae [23] = assay: Antibacterial activity against Enterobacter cloacae 17-7 assessed as reduction in bacterial growth
Acinetobacter baumannii [24] = assay: Antibacterial activity against Carbapenem- resistant Acinetobacter baumannii 17-13 assessed as reduction in bacterial growth
Klebsiella pneumoniae [25] = assay: Antibacterial activity against Carbapenem- resistant Klebsiella pneumoniae KR 15-10 assessed as reduction in bacterial growth
Klebsiella aerogenes [26] = assay: Antibacterial activity against Enterobacter aerogenes 15-7 assessed as reduction in bacterial growth
Acinetobacter baumannii [27] = assay: Antibacterial activity against Carbapenem- resistant Acinetobacter baumannii 17-9 assessed as reduction in bacterial growth
Klebsiella pneumoniae [28] = assay: Antibacterial activity against Carbapenem- sensitive Klebsiella pneumoniae 17-8 overexpressing extended spectrum beta-lactamases assessed as reduction in bacterial growth
Escherichia coli [29] = assay: Antibacterial activity against Escherichia coli ATCC 25922 assessed as reduction in bacterial growth
Escherichia coli [30] = assay: Antibacterial activity against ESBLs positive Carbapenem-sensitive Escherichia coli 17-21 assessed as reduction in bacterial growth
Escherichia coli [31] = assay: Antibacterial activity against ESBLs positive Carbapenem-sensitive Escherichia coli 17-6 assessed as reduction in bacterial growth
Klebsiella aerogenes [32] = assay: Antibacterial activity against Enterobacter aerogenes 15-6 assessed as reduction in bacterial growth
Acinetobacter baumannii [33] = assay: Antibacterial activity against Acinetobacter baumannii NCTC 13304 assessed as reduction in bacterial growth
Acinetobacter baumannii [34] = assay: Antibacterial activity against Carbapenem- resistant Acinetobacter baumannii 17-12 assessed as reduction in bacterial growth
Escherichia coli [35] = assay: Antibacterial activity against ESBLs negative Carbapenem-sensitive Escherichia coli 17-16 assessed as reduction in bacterial growth
Klebsiella pneumoniae [36] = assay: Antibacterial activity against Carbapenem- resistant Klebsiella pneumoniae KR 15-7 assessed as reduction in bacterial growth
Acinetobacter baumannii [37] = assay: Antibacterial activity against Carbapenem- resistant Acinetobacter baumannii 17-6 assessed as reduction in bacterial growth
Klebsiella pneumoniae [38] = assay: Antibacterial activity against Carbapenem- resistant Klebsiella pneumoniae KR 15-11 assessed as reduction in bacterial growth
Klebsiella pneumoniae [39] = assay: Antibacterial activity against ESBLs negative Carbapenem-sensitive Klebsiella pneumoniae 17-17 assessed as reduction in bacterial growth
Pseudomonas aeruginosa [40] = assay: Antibacterial activity against Carbapenem- resistant Pseudomonas aeruginosa 17-8 assessed as reduction in bacterial growth
Klebsiella aerogenes [41] = assay: Antibacterial activity against Enterobacter aerogenes 17-2 assessed as reduction in bacterial growth
Klebsiella pneumoniae [42] = assay: Antibacterial activity against Carbapenem- sensitive Klebsiella pneumoniae 17-3 overexpressing extended spectrum beta-lactamases assessed as reduction in bacterial growth
Klebsiella pneumoniae [43] = assay: Antibacterial activity against Carbapenem- resistant Klebsiella pneumoniae KR 15-6 assessed as reduction in bacterial growth
Acinetobacter baumannii [44] = assay: Antibacterial activity against Carbapenem- resistant Acinetobacter baumannii 17-8 assessed as reduction in bacterial growth
Klebsiella aerogenes [45] = assay: Antibacterial activity against Enterobacter aerogenes 15-3 assessed as reduction in bacterial growth
Acinetobacter baumannii [46] = assay: Antibacterial activity against Carbapenem- resistant Acinetobacter baumannii 17-10 assessed as reduction in bacterial growth
Escherichia coli [47] = assay: Antibacterial activity against ESBLs positive Carbapenem-sensitive Escherichia coli 17-12 assessed as reduction in bacterial growth
Klebsiella aerogenes [48] = assay: Antibacterial activity against Enterobacter aerogenes 15-5 assessed as reduction in bacterial growth
Klebsiella pneumoniae [49] = assay: Antibacterial activity against Carbapenem- sensitive Klebsiella pneumoniae 17-2 overexpressing extended spectrum beta-lactamases assessed as reduction in bacterial growth
Pseudomonas aeruginosa [50] = assay: Antibacterial activity against Carbapenem- sensitive Pseudomonas aeruginosa 17-24 assessed as reduction in bacterial growth
Klebsiella pneumoniae [51] = assay: Antibacterial activity against ESBLs negative Carbapenem-sensitive Klebsiella pneumoniae 17-18 assessed as reduction in bacterial growth
Escherichia coli [52] = assay: Antibacterial activity against ESBLs negative Carbapenem-sensitive Escherichia coli 17-1 assessed as reduction in bacterial growth
Pseudomonas aeruginosa [53] = assay: Antibacterial activity against Carbapenem- sensitive Pseudomonas aeruginosa 17-22 assessed as reduction in bacterial growth
Klebsiella pneumoniae [54] = assay: Antibacterial activity against Carbapenem- sensitive Klebsiella pneumoniae 17-11 overexpressing extended spectrum beta-lactamases assessed as reduction in bacterial growth
Acinetobacter baumannii [55] = assay: Antibacterial activity against Carbapenem- resistant Acinetobacter baumannii 17-2 assessed as reduction in bacterial growth

C[C@@H](O)[C@H]1C(=O)N2C(C(=O)O)=C(S[C@@H]3CN[C@H](C(=O)N(C)C)C3)[C@H](C)[C@H]12 [MEROPENEM]
MIC (Klebsiella aerogenes [1]): 0.125 µg/mL (≈ 0.326 µM) | MIC (Enterobacter cloacae [2]): < 0.03 µg/mL | MIC (Pseudomonas aeruginosa [3]): 32 µg/mL (≈ 83.4 µM) | MIC (Klebsiella pneumoniae [4]): 0.06 µg/mL (≈ 0.156 µM) | MIC (Pseudomonas aeruginosa [5]): 1 µg/mL (≈ 2.61 µM) | MIC (Enterobacter cloacae [6]): 0.125 µg/mL (≈ 0.326 µM) | MIC (Pseudomonas aeruginosa [7]): 1 µg/mL (≈ 2.61 µM) | MIC (Klebsiella pneumoniae [8]): > 64 µg/mL | MIC (Escherichia coli [9]): < 0.03 µg/mL | MIC (Escherichia coli [10]): < 0.03 µg/mL | MIC (Klebsiella pneumoniae [11]): 64 µg/mL (≈ 167 µM) | MIC (Klebsiella pneumoniae [12]): < 0.03 µg/mL | MIC (Pseudomonas aeruginosa [13]): 16 µg/mL (≈ 41.7 µM) | MIC (Klebsiella pneumoniae [14]): 0.06 µg/mL (≈ 0.156 µM) | MIC (Klebsiella aerogenes [15]): 0.125 µg/mL (≈ 0.326 µM) | MIC (Escherichia coli [16]): < 0.03 µg/mL | MIC (Escherichia coli [17]): < 0.03 µg/mL | MIC (Escherichia coli [18]): < 0.03 µg/mL | MIC (Klebsiella pneumoniae [19]): > 64 µg/mL | MIC (Escherichia coli [20]): < 0.03 µg/mL | MIC (Escherichia coli [21]): 0.06 µg/mL (≈ 0.156 µM) | MIC (Acinetobacter baumannii [22]): 32 µg/mL (≈ 83.4 µM) | MIC (Enterobacter cloacae [23]): 0.25 µg/mL (≈ 0.652 µM) | MIC (Acinetobacter baumannii [24]): 64 µg/mL (≈ 167 µM) | MIC (Klebsiella pneumoniae [25]): > 64 µg/mL | MIC (Klebsiella aerogenes [26]): 0.125 µg/mL (≈ 0.326 µM) | MIC (Acinetobacter baumannii [27]): 32 µg/mL (≈ 83.4 µM) | MIC (Klebsiella pneumoniae [28]): 0.125 µg/mL (≈ 0.326 µM) | MIC (Escherichia coli [29]): < 0.03 µg/mL | MIC (Escherichia coli [30]): < 0.03 µg/mL | MIC (Escherichia coli [31]): < 0.03 µg/mL | MIC (Klebsiella aerogenes [32]): 0.06 µg/mL (≈ 0.156 µM) | MIC (Acinetobacter baumannii [33]): 16 µg/mL (≈ 41.7 µM) | MIC (Acinetobacter baumannii [34]): 16 µg/mL (≈ 41.7 µM) | MIC (Escherichia coli [35]): < 0.03 µg/mL | MIC (Klebsiella pneumoniae [36]): > 64 µg/mL | MIC (Acinetobacter baumannii [37]): 32 µg/mL (≈ 83.4 µM) | MIC (Klebsiella pneumoniae [38]): 32 µg/mL (≈ 83.4 µM) | MIC (Klebsiella pneumoniae [39]): < 0.03 µg/mL | MIC (Pseudomonas aeruginosa [40]): 32 µg/mL (≈ 83.4 µM) | MIC (Klebsiella aerogenes [41]): 0.06 µg/mL (≈ 0.156 µM) | MIC (Klebsiella pneumoniae [42]): < 0.03 µg/mL | MIC (Klebsiella pneumoniae [43]): > 64 µg/mL | MIC (Acinetobacter baumannii [44]): 32 µg/mL (≈ 83.4 µM) | MIC (Klebsiella aerogenes [45]): 4 µg/mL (≈ 10.4 µM) | MIC (Acinetobacter baumannii [46]): 16 µg/mL (≈ 41.7 µM) | MIC (Escherichia coli [47]): < 0.03 µg/mL | MIC (Klebsiella aerogenes [48]): 0.125 µg/mL (≈ 0.326 µM) | MIC (Klebsiella pneumoniae [49]): < 0.03 µg/mL | MIC (Pseudomonas aeruginosa [50]): 2 µg/mL (≈ 5.22 µM) | MIC (Klebsiella pneumoniae [51]): < 0.03 µg/mL | MIC (Escherichia coli [52]): < 0.03 µg/mL | MIC (Pseudomonas aeruginosa [53]): 1 µg/mL (≈ 2.61 µM) | MIC (Klebsiella pneumoniae [54]): 0.06 µg/mL (≈ 0.156 µM) | MIC (Acinetobacter baumannii [55]): 64 µg/mL (≈ 167 µM)
